Measured values reported in patent US10228381B2, “Additive channels” (Emulate Inc., priority 2016, dated 2019).
“Also recorded” adds a separate entry of the source. Positions of bridges follow the written chain, without caps; N, C: chain ends. Non-standard residues stand in square brackets, D forms with d. Residues, ends and D or L forms follow the SMILES beside them. hArg = N=C(N)NCCCC[C@H](N)C(=O)O; Mpa = O=C(O)CCS

Legend:
[1] = test system: human whole blood on HUVEC endothelium; experiment: Vessel-On-Chip thrombosis, all endpoints together (platelet coverage, fibrin deposition, TAT); type: cell-based; conditions: adding Eptifibatide; n=4 donors
[2] = test system: platelets in human whole blood on HUVEC endothelium; experiment: Vessel-On-Chip blood perfusion, platelet coverage by fluorescence imaging; type: cell-based; conditions: for areas of platelet coverage (platelet aggregation on the endothelium): endothelial pre-treatment TNF-α 50 ng/ml 6 hours, or sCollagen 10 μg/ml in blood; for platelet aggregate formation compared to untreated blood: hu5C8 240 μg/mL, sCD40L 10 ng/ml, 4 donors, 60 μl/minute
Protocol: Platelets: Platelets were labeled with human CD41-PE antibody (10 μL/ml, Invitrogen) directly added to the blood and incubated at room temperature for 5 minutes.
(§1) Adding Blood to a Vessel-On-Chip And Flow Conditions: A medical grade plastic reservoir was mounted on the chip, then 800 μl of the blood sample was pipetted into the reservoir. The chip was perfused with the blood by withdrawing it at a rate of 60 μl/minute using a syringe pump. The citrated blood was re-calcified 2 minutes after the beginning of each experiment by adding 100 μl/ml of a solution containing 100 mM calcium chloride and 75 mM magnesium chloride to the blood to permit calcium- and magnesium -dependent platelet function and coagulation.
(§2) Fluorescence Image Analysis: Chips perfused with blood samples were immediately imaged via fluorescence microscopy (Olympus IX83, 10× objective UPLFLN10X2 , Orca-Flash4.0 CMOS Camera). Each chamber was inspected along its entire length and 5 images (about 0.25 cm) were captured from the central area of the chamber. Image processing and quantification was performed with an automatic macro compiled in ImageJ and numerical values corresponding to platelet coverage or fibrin florescence were collected and statistically analyzed in Graphpad Prism V7.
Platelet Coverage: A percentage of signal coverage (or Platelet coverage) was computed from the binary image as the ratio of bright pixels to the total number of pixels in the image. Image processing and quantification was performed with an automatic macro compiled in ImageJ in order to ensure unbiased signal measurements. Numerical values corresponding to platelet coverage or fibrin fluorescence (signal intensity) were collected and statistically analyzed in Graphpad Prism V7.

[3] = test system: fibrin deposition on HUVEC endothelium; experiment: Vessel-On-Chip blood perfusion, fibrin deposition by fluorescence imaging; type: cell-based, human; conditions: for fibrin signal intensity (fibrin deposition on the endothelium): endothelial pre-treatment TNF-α 50 ng/ml 6 hours, or sCollagen 10 μg/ml in blood; for fibrin deposition on the endothelium compared to untreated blood: hu5C8 240 μg/mL, sCD40L 10 ng/ml, 4 donors, 60 μl/minute
Protocol: as §1
Visualizing Fibrin Deposition: When analyzing the formation of fibrin, 10 μg/ml of fluorescently labeled fibrinogen (Alexa 488, Invitrogen) was also added to the blood. While fluorescent fibrinogen was barely detected as a diffused fluorescence, fibrin deposition on inflamed cells and sparse clots was easily distinguished since fibrin formed filamentous structures produce a signal intensity that is clearly observed above a background threshold.
as §2

[4] = test system: blood clots on endothelium; experiment: Imaging of blood clots formed on-chip (SEM, micrographs, 3D movie); type: cell-based, human; conditions: after blood perfusion
Protocol: Scanning Electron Microscopy Sample Pre-treatment and Imaging: Immediately after fluorescence imaging, the chips were fixed in 2.5% glutaraldehyde in 100 mM sodium cacodylate buffer for 2 hours at room temperature. Then, the samples were washed and post fixed in 1% osmium tetroxide for 1 hour at room temperature. After the postfixation, the samples were dehydrated in series dilutions of ethanol and finally completely dried in a Critical point dryer (Tousimus Autosamsri-815). After mounting, the samples were gold sputtered using a Sputter coating system (Hummer 6.2) and imaged by SEM (Jeol 5600LV).

[5] = test system: thrombin anti-thrombin complex (TAT); experiment: Thrombin-Anti Thrombin (TAT) ELISA in chip effluent; type: cell-based, human; conditions: FIG. 22B; plasma from blood flowing out of the chip
Protocol: Thrombin-Anti Thrombin (TAT) Measurement via ELISA: Thrombin Anti-Thrombin (TAT) levels were analyzed in plasma from blood flowing out of the chip device by removing a sample from the outflow port. Thus TAT levels were evaluated in sample effluents collected from the outflow port of the chip using the Human TAT ELISA Kit (Siemens Healthineers) according to the user manual.

[6] = Eptifibatide 2 ug/ml, endothelium inflamed with TNF-α, n=4
[7] = Eptifibatide 2 ug/ml, following treatment with sCollagen, n=4

N=C(N)NCCCC[C@@H]1NC(=O)CCSSC[C@@H](C(N)=O)NC(=O)[C@@H]2CCCN2C(=O)[C@H](Cc2c[nH]c3ccccc23)NC(=O)[C@H](CC(=O)O)NC(=O)CNC1=O [Eptifibatide] ([Mpa][hArg]GDWPC-NH2; disulfide 1-7)
pro-thrombotic effects (platelet coverage, fibrin deposition) of TNF-α and sCollagen / thrombotic events [1]: suppressed; also recorded: inhibited
platelet aggregation [2, 6]: significantly inhibited
inhibitory effect on platelet aggregation [2, 7]: comparatively modest
platelet adhesion (image analysis of multiple experiments) ([2]; Eptifibatide 2 ug/ml, n=4): completely inhibited
fibrin clot formation [3, 6]: significantly inhibited
inhibitory effect on fibrin clot formation [3, 7]: comparatively modest
fibrin signal (image analysis of multiple experiments) ([3]; Eptifibatide 2 ug/ml, samples treated with TNF-α): significant amount of fibrin signal was still detectable

TNF-α
structure of blood clots formed on-chip [4]: compact clots composed of red blood cells and platelets, surrounded by fibrin; also recorded: high number of larger aggregates containing a platelet rich core decorated with fibrin
areas of platelet coverage (platelet aggregation on the endothelium) [2]: increased
fibrin signal intensity (fibrin deposition on the endothelium) [3]: increased
levels of TAT in outflow samples [5]: significantly increased; also recorded: elevated levels

sCollagen: soluble collagen (Soluble Calf Skin, Type I), a standard platelet activator
structure of blood clots formed on-chip [4]: meshwork of complex fibrin-rich clots that incorporated red blood cells and platelets; also recorded: high number of larger aggregates containing a platelet rich core decorated with fibrin
areas of platelet coverage (platelet aggregation on the endothelium) [2]: increased
fibrin signal intensity (fibrin deposition on the endothelium) [3]: increased
levels of TAT in outflow samples [5]: minimally increased; also recorded: elevated levels

B1: sCD40L: soluble CD40 ligand; recombinant human sCD40 Ligand (protein, UniProt P29965 113-261, looked up)
CD40 ligand, soluble form: MQKGDQNPQIAAHVISEASSKTTSVLQWAEKGYYTMSNNLVTLENGKQLTVKRQGLYYIYAQVTFCSNREASSQAPFIASLCLKSPGRFERILLRAANTHSSAKPCGQQSIHLGGVFELQPGASVFVNVTDPSQVSHGTGFTSFGLLKL
modifications: CD40 ligand, soluble form
platelet aggregate formation compared to untreated blood [2]: no significant treatment-related effects
platelet coverage, fold-increase over untreated control ([2]; in some donors, sCD40L alone): about 2 fold
mean increase in platelet coverage compared to controls ([2]; sCD40L alone, up to 15 donors): not statistically significant
fibrin deposition on the endothelium compared to untreated blood [3]: no significant treatment-related effects

B2: hu5C8: humanized monoclonal IgG1 antibody against CD40L, alternatively named anti-sCD40L or anti-CD154 (antibody, chains of the INN, looked up, V domains shown)
VH: QVQLVQSGAEVVKPGASVKLSCKASGYIFTSYYMYWVKQAPGQGLEWIGEINPSNGDTNFNEKFKSKATLTVDKSASTAYMELSSLRSEDTAVYYCTRSDGRNDMDSWGQGTLVTVSS
VL: DIVLTQSPATLSVSPGERATISCRASQRVSSSTYSYMHWYQQKPGQPPKLLIKYASNLESGVPARFSGSGSGTDFTLTISSVEPEDFATYYCQHSWEIPPTFGGGTKLEIK
platelet aggregate formation compared to untreated blood [2]: no significant treatment-related effects
fibrin deposition on the endothelium compared to untreated blood [3]: no significant treatment-related effects
